Structures can show the parent of a compound that is named as a salt.
How the values were obtained:
ISC-enriched organoids [1] = experiment: Secondary (validation) screen, 384-well 2.5-D, ENR+CD 6 days, n=8 wells, vs ENR+CD+DMSO control: ATP (CTG); type: cell-based, murine
Protocol: (§1) Drugs were tested at a narrowed dose range around each treatment's identified optimal dose from the primary screen (4× below, 2× above and below).
(§2) High-throughput screening.
(§3) Secondary lysozyme secretion assay screen. Confirmatory secondary screening with primary hits was performed using the above 384-well plate method. The screen was conducted with 4-plate replicates with a base media of ENR+CD. Media was supplemented with compound at day 0 and day 3 (n=8 well replicates per dose) at four different doses: two-fold above, two-fold below, and four-fold below the optimal final dose for each respective treatment. Additionally, each plate carried a large number of ENR+DMSO or ENR+CD+DMSO (vehicle) control wells (n=100 for ATP, and n=25 for LYZ.NS and LYZ.S) for robust normalization. ATP, non-stimulated lysozyme activity and CCh-stimulated lysozyme activity was again measured and the collected data was again processed in a custom R-script, per primary screen with slight modification. Values were log10 transformed, and a plate-wise FC was calculated for each well based on the median value of ENR+CD+DMSO (vehicle) control wells to normalize plate to plate variability.

ISC-enriched organoids [2] = experiment: Secondary (validation) screen, 384-well 2.5-D, ENR+CD 6 days, n=8 wells, vs ENR+CD+DMSO control: basal lysozyme secretion (LYZ.NS); type: cell-based, murine
Protocol: as §1, §2, §3

ISC-enriched organoids [3] = experiment: Secondary (validation) screen, 384-well 2.5-D, ENR+CD 6 days, n=8 wells, vs ENR+CD+DMSO control: carbachol-induced lysozyme secretion (LYZ.S); type: cell-based, murine
Protocol: as §1, §2, §3

ISC-enriched organoids [4] = experiment: Primary screen, 384-well 2.5-D organoid differentiation (ENR+CD, 6 days, Target Selective Inhibitor Library, vs whole-plate median): ATP (CellTiter-Glo 3D, CTG); details: primary screen

## COc1ccc(C2CNC(=O)C2)cc1OC1CCCC1 (stereo not drawn) [Rolipram]
ISC-enriched organoids [1]; Dose 0.50 uM
  Z.CTG: 0.477
  repSSMD.CTG: 0.368
ISC-enriched organoids [1]; Dose 1.00 uM
  Z.CTG: 1.198
  repSSMD.CTG: 0.832
ISC-enriched organoids [1]; Dose 4.00 uM
  Z.CTG: 0.583
  repSSMD.CTG: 0.447
ISC-enriched organoids [1]; dose 2.00 uM
  Z.CTG: 1.819
  repSSMD.CTG: 1.420
ISC-enriched organoids [2]; Dose 0.50 uM
  Z.LYZ.NS: −0.342
  repSSMD.LYZ.NS: −0.478
ISC-enriched organoids [2]; Dose 1.00 uM
  Z.LYZ.NS: 1.213
  repSSMD.LYZ.NS: 1.715
ISC-enriched organoids [2]; Dose 4.00 uM
  Z.LYZ.NS: −0.407
  repSSMD.LYZ.NS: −0.543
ISC-enriched organoids [2]; dose 2.00 uM
  Z.LYZ.NS: 0.793
  repSSMD.LYZ.NS: 0.950
ISC-enriched organoids [3]; Dose 0.50 uM
  Z.LYZ.S: −0.631
  repSSMD.LYZ.S: −0.936
ISC-enriched organoids [3]; Dose 1.00 uM
  Z.LYZ.S: 0.801
  repSSMD.LYZ.S: 1.107
ISC-enriched organoids [3]; Dose 4.00 uM
  Z.LYZ.S: −0.543
  repSSMD.LYZ.S: −0.736
ISC-enriched organoids [3]; dose 2.00 uM
  Z.LYZ.S: 0.227
  repSSMD.LYZ.S: 0.169
ISC-enriched organoids [4]; Dose 0.08 uM
  Z.CTG (standard z score): 0.850
ISC-enriched organoids [4]; Dose 0.40 uM
  Z.CTG (standard z score): 0.370
ISC-enriched organoids [4]; Dose 2.00 uM
  Z.CTG (standard z score): 0.945
ISC-enriched organoids [4]; Dose 10.00 uM
  Z.CTG (standard z score): 0.714

## N#CC[C@H](C1CCCC1)n1cc(-c2ncnc3[nH]ccc23)cn1 [Ruxolitinib (INCB018424), Ruxolitinib]
ISC-enriched organoids [1]; Dose 2.50 uM
  Z.CTG: −0.128
  repSSMD.CTG: −0.090
ISC-enriched organoids [1]; Dose 5.00 uM
  Z.CTG: −2.016
  repSSMD.CTG: −1.168
ISC-enriched organoids [1]; Dose 20.00 uM
  Z.CTG: 1.496
  repSSMD.CTG: 0.952
ISC-enriched organoids [1]; dose 10.00 uM
  Z.CTG: −1.380
  repSSMD.CTG: −1.030
ISC-enriched organoids [2]; Dose 2.50 uM
  Z.LYZ.NS: −1.251
  repSSMD.LYZ.NS: −1.701
ISC-enriched organoids [2]; Dose 5.00 uM
  Z.LYZ.NS: −1.098
  repSSMD.LYZ.NS: −1.569
ISC-enriched organoids [2]; Dose 20.00 uM
  Z.LYZ.NS: 0.522
  repSSMD.LYZ.NS: 0.930
ISC-enriched organoids [2]; dose 10.00 uM
  Z.LYZ.NS: −0.671
  repSSMD.LYZ.NS: −1.103
ISC-enriched organoids [3]; Dose 2.50 uM
  Z.LYZ.S: −1.400
  repSSMD.LYZ.S: −1.806
ISC-enriched organoids [3]; Dose 5.00 uM
  Z.LYZ.S: −1.667
  repSSMD.LYZ.S: −2.281
ISC-enriched organoids [3]; Dose 20.00 uM
  Z.LYZ.S: 0.208
  repSSMD.LYZ.S: 0.382
ISC-enriched organoids [3]; dose 10.00 uM
  Z.LYZ.S: −1.289
  repSSMD.LYZ.S: −2.212
ISC-enriched organoids [4]; Dose 0.08 uM
  Z.CTG (standard z score): 1.093
ISC-enriched organoids [4]; Dose 0.40 uM
  Z.CTG (standard z score): 0.867
ISC-enriched organoids [4]; Dose 2.00 uM
  Z.CTG (standard z score): 1.062
ISC-enriched organoids [4]; Dose 10.00 uM
  Z.CTG (standard z score): 1.140

## C[C@H](NCc1ccc(OCc2cccc(F)c2)cc1)C(N)=O [Safinamide Mesylate]
ISC-enriched organoids [1]; Dose 0.50 uM
  Z.CTG: −0.127
  repSSMD.CTG: −0.118
ISC-enriched organoids [1]; Dose 1.00 uM
  Z.CTG: −0.743
  repSSMD.CTG: −0.547
ISC-enriched organoids [1]; Dose 4.00 uM
  Z.CTG: −0.022
  repSSMD.CTG: −0.013
ISC-enriched organoids [1]; dose 2.00 uM
  Z.CTG: −0.098
  repSSMD.CTG: −0.060
ISC-enriched organoids [2]; Dose 0.50 uM
  Z.LYZ.NS: −1.244
  repSSMD.LYZ.NS: −1.484
ISC-enriched organoids [2]; Dose 1.00 uM
  Z.LYZ.NS: −1.847
  repSSMD.LYZ.NS: −2.985
ISC-enriched organoids [2]; Dose 4.00 uM
  Z.LYZ.NS: −0.272
  repSSMD.LYZ.NS: −0.431
ISC-enriched organoids [2]; dose 2.00 uM
  Z.LYZ.NS: −0.368
  repSSMD.LYZ.NS: −0.556
ISC-enriched organoids [3]; Dose 0.50 uM
  Z.LYZ.S: −1.637
  repSSMD.LYZ.S: −2.413
ISC-enriched organoids [3]; Dose 1.00 uM
  Z.LYZ.S: −2.259
  repSSMD.LYZ.S: −3.571
ISC-enriched organoids [3]; Dose 4.00 uM
  Z.LYZ.S: −0.658
  repSSMD.LYZ.S: −0.942
ISC-enriched organoids [3]; dose 2.00 uM
  Z.LYZ.S: −0.757
  repSSMD.LYZ.S: −1.243
ISC-enriched organoids [4]; Dose 0.08 uM
  Z.CTG (standard z score): 0.633
ISC-enriched organoids [4]; Dose 0.40 uM
  Z.CTG (standard z score): 0.575
ISC-enriched organoids [4]; Dose 2.00 uM
  Z.CTG (standard z score): 0.627
ISC-enriched organoids [4]; Dose 10.00 uM
  Z.CTG (standard z score): 0.883

Reference: patent US20230398130A1, “METHODS AND COMPOSITIONS FOR DIFFERENTIATING STEM CELLS” (Massachusetts Institute of Technology, priority 2020, published 2023)
